The structures appear in SMILES notation.

For series [1], the system named is Rattus norvegicus. The experiment in a line: (§1) AUC in rat at 5 mg/kg, po. Format: ADME, organism-based, Plasma. The arrangement: dose 5 mg/kg, route oral. As to conditions: in vivo.
Series [2] has as its system Human immunodeficiency virus 1. In words: Antiviral activity against HIV1 JR-FL in human HeLa cells expressing CD4, CCR5 assessed as inhibition of integration of viral DNA into cell genome after 3 days by luciferase reporter gene assay. Format: functional, organism-based. As to conditions: Human immunodeficiency virus 1, JR-FL, 72 h.
The test system of series [3] is Rattus norvegicus. In words: Oral bioavailability in rat at 5 mg/kg. Format: ADME, organism-based. As to conditions: in vivo.
Series [4] can be described thus: Cytotoxicity against human HeLa cells expressing CD4, CCR5 after 3 days. As to conditions: HeLa cells expressing CD4 and CCR5. The format is cell-based.
Series [5] can be described thus: as §1. As to conditions: plasma. The format is ADME, organism-based, Plasma. Also noted: dose 5 mg/kg, route oral.

Broadly, the AUC is concentration integrated over time. Lower therefore signals less exposure. By EC50 is commonly meant the concentration needed to bring the measured effect to its halfway point. Usually CC50 stands for the concentration that lowers cell viability or growth by half. Higher therefore signals better tolerance by the cells. `C[C@@H]1CN(C(=O)C(=O)c2c[nH]c3c(-c4ncco4)ccnc23)CCN1C(=O)c1ccccc1` gave an AUC with Rattus norvegicus [1] of 5.6 µM·h. Further, in series [2], the EC50 was determined as 0.34 nM. For the same molecule, the F in the series with Rattus norvegicus [3] is 60%. In series [4], this molecule yielded a CC50 at 72 h of 135000 nM.

The molecule `C[C@@H]1CN(C(=O)C(=O)c2c[nH]c3c(-c4nccs4)ccnc23)CCN1C(=O)c1ccccc1` came in with an AUC with Rattus norvegicus [1] of 1.3 µM·h. Besides, the 50% effective concentration (EC50) in series [2] worked out at 0.31 nM. This molecule also gave a F with Rattus norvegicus [3] of 41%. The midpoint of cytotoxicity in series [4], the CC50 at 72 h, lay at 35000 nM.

In turn, `O=C(C(=O)N1CCN(C(=O)c2ccccc2)CC1)c1c[nH]c2c(-n3nccn3)ccnc12` came in with an AUC in the series with Rattus norvegicus [1] of 9.6 µM·h. Besides, in series [2], the EC50 worked out at 0.32 nM. In the series with Rattus norvegicus [3], this molecule returned an F of 65%. Further, the cytotoxic concentration (CC50) at 72 h in series [4] is above 300000 nM.

The molecule `COc1ccnc2[nH]cc(C(=O)C(=O)N3CCN(C(=O)c4ccccc4)C[C@H]3C)c12` yielded an area under the curve (AUC) in series [5] of 1.3 µM·h. Further, the EC50 in series [2] was found to be 1 nM. The CC50 at 72 h in series [4] was above 300000 nM.

The record behind these values is ChEMBL document CHEMBL2311324, “Inhibitors of HIV-1 attachment. Part 10. The discovery and structure-activity relationships of 4-azaindole cores” (Bioorg Med Chem Lett, 2013).
